Measurements published in patent US20230132823A1, “BI-FUNCTIONAL COMPOUNDS AND METHODS FOR TARGETED UBIQUITINATION OF ANDROGEN RECEPTOR” (MONTELINO THERAPEUTICS, INC., priority 2020, published 2023).

Key:
22Rv1 = 22Rv1 cell proliferation assay (Experimental Example 3); type: cell-based, human; conditions: for 22Rv1 cell count, % of control: 6 days
Description: The human prostate cancer cell line, 22Rv1 has been reported to express a high level of AR-V7. […] Standard culture media was RPMI-1640 supplemented with 10% fetal bovine serum. The test compound initially was dissolved in DMSO at 50 mM. This stock solution was then diluted as needed for the indicated concentrations. […]
Cell Culture. Human CaP cell lines, LNCaP, 22Rv1, VCaP, PC3, and DU145 are obtained from the American Type Culture Collection (ATCC) and maintained in the standard culture media: RPMI-1640 supplemented with 10% fetal bovine serum (FBS). LNCaP, 22Rv1, and VCaP are androgen-responsive cell lines, while PC3 and DU145 are not. To establish SAT resistant CaP cell lines, LNCaP, 22Rv1, and VCaP are treated continuously with 10-50 μM abiraterone, apalutamide, darolutamide, or enzalutamide. After 3-6 months, stable cell lines are established and designated as LNCaP-Abi^R, LNCaP-Apa^R, LNCaP-Daro^R, LNCaP-Enz^R, VCaP-Abi^R, VCaP-Apa^R, VCaP-Daro^R, VCaP-Enz^R, 22Rv1-Abi^R, 22Rv1-Apa^R, 22Rv1-Daro^R and 22Rv1-Enz^R. Unless otherwise specified, the standard culture media for these SAT-resistant cell lines included 10 μM of their respective SAT. For the proteasome inhibitor study, the inhibitors MG132 and Epoxomicin are used. The E3 ligase inhibitors Heclin, Nutlin 3a, Thalidomide, and VH298 are used. Cell lines obtained from ATCC are confirmed by checking their morphology using optical microscopy, establishing baselines for cell proliferation, verifying species of origin using isoenzymology, and characterizing the cell's DNA fingerprint using short tandem repeat (STR) profiling. Mycoplasma contamination is also assessed using a PCR based detection system.

AR-V7 = target: T1, AR-V7 (Homo sapiens, UniProt P10275); experiment: Immunoblot of AR-V7 in harvested xenograft tumors; type: in vivo; set-up: endogenous in cells; host or cells: 22Rv1 (also VCaP, LNCaP and SAT-resistant sublines)
T1 sequence (P10275 1-644 isoform P10275-3): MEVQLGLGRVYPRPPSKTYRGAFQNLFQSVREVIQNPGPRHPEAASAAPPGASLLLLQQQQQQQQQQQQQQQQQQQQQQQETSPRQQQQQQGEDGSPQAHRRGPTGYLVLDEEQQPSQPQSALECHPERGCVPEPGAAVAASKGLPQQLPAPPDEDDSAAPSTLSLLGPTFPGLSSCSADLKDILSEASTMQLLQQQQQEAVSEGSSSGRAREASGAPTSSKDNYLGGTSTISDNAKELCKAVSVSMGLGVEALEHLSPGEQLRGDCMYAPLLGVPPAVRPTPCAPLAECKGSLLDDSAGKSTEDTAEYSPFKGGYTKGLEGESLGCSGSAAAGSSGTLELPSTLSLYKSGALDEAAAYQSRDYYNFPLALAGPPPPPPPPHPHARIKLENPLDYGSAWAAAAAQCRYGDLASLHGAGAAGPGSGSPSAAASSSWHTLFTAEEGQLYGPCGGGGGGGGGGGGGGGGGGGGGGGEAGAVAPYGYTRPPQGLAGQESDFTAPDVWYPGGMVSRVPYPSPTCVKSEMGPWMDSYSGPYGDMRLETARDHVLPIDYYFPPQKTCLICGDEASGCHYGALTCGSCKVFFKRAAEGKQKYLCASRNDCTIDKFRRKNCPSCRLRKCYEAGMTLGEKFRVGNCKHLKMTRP
Description: Immunoblot Analysis. CaP cells are collected and lysed with the lysis buffer (20 mM Tris-HCl (pH 7.5), 150 mM NaCl, 1 mM Na2EDTA, 1 mM EGTA, 1% Triton, 2.5 mM sodium pyrophosphate, 1 mM beta-glycerophosphate, 1 mM Na3VO4, and 1 μg/ml leupeptin) containing 1 mM phenylmethylsulfonyl fluoride (PMSF). Cell lysates are then centrifuged and protein in the supernatant is quantified. After separating 25-50 μg of protein using SDS-PAGE, samples are incubated with AR-V7, GR, PR, ERα, AR-FL, ubiquitin, or β-actin antibodies. For AR-V7, AR-FL, PR, GR, and ERα immunoblots, primary antibody is diluted 1:1000 in 5% skim milk. For the β-actin immunoblot, 1:10000 diluted primary antibody is used. […] Following the incubation with appropriate secondary antibody, immunoblots are analyzed using SuperSignal West Femto Maximum Sensitivity Substrate (ThermoFisher).
Mice are then treated daily with Test Compound with or without enzalutamide via the indicated route (intratumoral, intraperitoneal, or oral) for five to six weeks. At the end of the study, all animals are sacrificed and tumors are harvested and analyzed. Statistical significance is calculated using the Student's t-test for paired comparisons of experimental groups and, where appropriate, by Wilcoxon rank sum test, and by 2-way ANOVA. […]
The in vivo effects of the Compound of Example 16 are assessed in mice using enzalutamide-resistant CaP xenografts. […]

AR-V7 protein expression in Enz^R CaP tumors (AR-V7; IP administration): decreased
AR-V7 protein level in treated tumors (AR-V7; intratumoral, 22Rv1-Enz^R xenograft, end of study): significant decrease
Compound: Cc1ncsc1-c1ccc([C@H](C)NC(=O)[C@@H]2C[C@@H](O)CN2C(=O)[C@@H](NC(=O)CCCCNC(=O)COc2c(-c3csc(N4CCOCC4)n3)ccc(F)c2F)C(C)(C)C)cc1 [Example 16, (2S,4R)-1-((S)-2-(5-(2-(2,3-difluoro-6-(2-morpholinothiazol-4-yl)phenoxy)acetamido)pentanamido)-3,3-dimethylbutanoyl)-4-hydroxy-N-((S)-1-(4-(4-methylthiazol-5-yl)phenyl)ethyl)pyrrolidine-2-carboxamide]
22Rv1 cell count, % of control (22Rv1; 0.01 μM): approximately 90 % of control
22Rv1 cell count, % of control (22Rv1; 0.1 μM): ~70 % of control
22Rv1 cell count, % of the control (side to side cell line comparison) (22Rv1; 1 μM): approximately 40 % of the control
22Rv1 cell count, % of control (22Rv1; 1 μM): ~65 % of control
